Assay results published in DBAASP.
Values after ≈ are worked out from the molar mass of the structure shown.

Assays:
[1] = test system: Staphylococcus aureus ATCC 25923; assay: ≥ marks a high value that may be exact or a test limit, other limits are often not marked, values filed in µg/mL are converted to µM
[2] = test system: Escherichia coli ATCC 25922; assay: as above

Row | SMILES | MIC [1] | MIC [2]
1 | CC[C@H](C)[C@H](NC(=O)[C@H](CCCN=C(N)N)NC(=O)[C@H](CCCCN)NC(=O)[C@H](CC(C)C)NC(=O)[C@H](CC(C)C)NC(=O)CN)C(=O)N[C@@H](CCCCN)C(=O)N[C@@H](C)C(=O)N[C@@H](CC(C)C)C(=O)N[C@@H](CC(C)C)C(N)=O [GLLKRIKALL] | 7.11 µM (≈ 7.99 µg/mL) | 14.2 µM (≈ 16 µg/mL)
2 | CC[C@H](C)[C@H](NC(=O)[C@H](C)NC(=O)CNC(=O)[C@H](C)NC(=O)[C@H](CCCCN)NC(=O)[C@H](CO)NC(=O)[C@H](C)NC(=O)[C@H](CCSC)NC(=O)CN)C(=O)N[C@@H](C)C(=O)NCC(=O)N[C@@H](CCCCN)C(=O)N[C@H](C(=O)N[C@@H](C)C(=O)N[C@@H](CCCCN)C(=O)N[C@H](C(=O)N[C@@H](C)C(=O)N[C@@H](Cc1c[nH]c2ccccc12)C(=O)N[C@@H](CCCCN)C(=O)N[C@@H](C)C(=O)N[C@@H](CC(C)C)C(=O)NCC(=O)NCC(=O)N[C@@H](CS)C(N)=O)C(C)C)[C@@H](C)CC [GMASKAGAIAGKIAKVAWKALGGC] |  | 4.42 µM (≈ 9.98 µg/mL)
3 | CC[C@H](C)[C@H](NC(=O)CNC(=O)[C@H](CCC(N)=O)NC(=O)[C@H](C)NC(=O)[C@@H](NC(=O)[C@H](CCCCN)NC(=O)[C@H](CCCCN)NC(=O)[C@H](CC(C)C)NC(=O)[C@H](C)NC(=O)[C@H](CC(N)=O)NC(=O)[C@H](CC(C)C)NC(=O)CN)C(C)C)C(=O)N[C@@H](Cc1cnc[nH]1)C(=O)N[C@@H](CCC(=O)O)C(=O)N[C@@H](C)C(=O)N[C@H](C(=O)N[C@@H](CCCCN)C(=O)N[C@@H](CC(C)C)C(=O)N[C@H](C(=O)N[C@@H](CC(N)=O)C(=O)N[C@@H](CC(N)=O)C(=O)N[C@@H](Cc1cnc[nH]1)C(=O)N[C@H](C(=O)N[C@@H](CCC(N)=O)C(N)=O)C(C)C)[C@@H](C)CC)[C@@H](C)CC [GLNALKKVAQGIHEAIKLINNHVQ] |  | 11.3 µM (≈ 29.5 µg/mL)
4 | CC[C@H](C)[C@H](NC(=O)[C@@H](NC(=O)[C@@H](NC(=O)CNC(=O)[C@H](C)NC(=O)[C@@H](NC(=O)[C@H](CC(N)=O)NC(=O)[C@@H](NC(=O)[C@H](C)NC(=O)[C@H](CC(C)C)NC(=O)[C@H](CC(N)=O)NC(=O)[C@H](CCCCN)NC(=O)[C@@H](NC(=O)[C@@H](NC(=O)[C@H](CO)NC(=O)[C@H](CC(C)C)NC(=O)[C@H](Cc1ccccc1)NC(=O)CN)[C@@H](C)O)C(C)C)[C@@H](C)O)C(C)C)[C@@H](C)O)C(C)C)C(=O)N[C@@H](CC(=O)O)C(=O)N[C@H](C(=O)N[C@@H](CC(C)C)C(=O)N[C@@H](CCCCN)C(=O)N[C@H]1CSSC[C@@H](C(=O)N[C@@H](CCCN=C(N)N)C(=O)N[C@@H](CO)C(=O)O)NC(=O)CNC(=O)CNC(=O)[C@H]([C@@H](C)O)NC(=O)[C@H](C(C)C)NC(=O)[C@H](CCCCN)NC1=O)[C@@H](C)O [GFLSTVKNLATNVAGTVIDTLKCKVTGGCRS] |  | 120 µM (≈ 378 µg/mL)
5 | CC[C@H](C)[C@H](NC(=O)[C@H](Cc1c[nH]c2ccccc12)NC(=O)[C@H](Cc1c[nH]c2ccccc12)NC(=O)[C@H](Cc1c[nH]c2ccccc12)NC(=O)[C@H](Cc1c[nH]c2ccccc12)NC(=O)[C@H](CCCCN)NC(=O)[C@H](CCCCN)NC(=O)[C@H](CCCCN)NC(=O)[C@@H](N)CCCCN)C(N)=O [KKKKWWWWI] |  | 5.76 µM (≈ 7.99 µg/mL)
6 | CC[C@H](C)[C@H](NC(=O)[C@H](CCCN=C(N)N)NC(=O)[C@H](CCCCN)NC(=O)[C@H](CC(C)C)NC(=O)[C@H](CC(C)C)NC(=O)[C@H](C)N)C(=O)N[C@@H](CCCCN)C(=O)N[C@H](C(=O)N[C@@H](CC(C)C)C(=O)N[C@@H](CC(C)C)C(N)=O)[C@@H](C)O [ALLKRIKTLL] | > 18 µM | > 18 µM
7 | CC[C@H](C)[C@H](NC(=O)[C@H](CCCN=C(N)N)NC(=O)[C@H](CCCCN)NC(=O)[C@H](CCSC)NC(=O)[C@H](CCSC)NC(=O)CN)C(=O)N[C@@H](CCCCN)C(=O)N[C@H](C(=O)N[C@@H](CCSC)C(=O)N[C@@H](CCSC)C(N)=O)[C@@H](C)O [GMMKRIKTMM] |  | > 200 µM
8 | CC(C)C[C@H](NC(=O)[C@H](CCCN=C(N)N)NC(=O)[C@H](CCCN=C(N)N)NC(=O)[C@H](CC(C)C)NC(=O)[C@H](Cc1c[nH]c2ccccc12)NC(=O)[C@H](CCCN=C(N)N)NC(=O)[C@H](Cc1c[nH]c2ccccc12)NC(=O)[C@@H](NC(=O)[C@H](CCCCN)NC(=O)[C@H](CCCN=C(N)N)NC(=O)[C@@H](N)CC(C)C)C(C)C)C(N)=O [LRKVWRWLRRL] | 10 µM (≈ 15.8 µg/mL) | 
9 | CC[C@H](C)[C@H](NC(=O)[C@H](C)NC(=O)[C@@H](NC(=O)[C@H](C)NC(=O)[C@H](CCCCN)NC(=O)[C@H](C)NC(=O)[C@H](CC(C)C)NC(=O)[C@H](CCCCN)NC(=O)CNC(=O)[C@H](CC(C)C)NC(=O)[C@@H](NC(=O)[C@H](CO)NC(=O)CNC(=O)[C@H](C)NC(=O)[C@@H](NC(=O)[C@H](CO)NC(=O)[C@H](C)NC(=O)[C@H](CCSC)NC(=O)CN)[C@@H](C)O)C(C)C)C(C)C)C(=O)NCC(=O)N[C@@H](C)C(=O)N[C@@H](CC(C)C)C(N)=O [GMASTAGSVLGKLAKAVAIGAL] | > 200 µM | > 200 µM
10 | CC(C)C[C@H](NC(=O)[C@H](Cc1ccccc1)NC(=O)[C@@H]1CCCN1C(=O)[C@H](Cc1ccc(O)cc1)NC(=O)[C@H](Cc1ccc(O)cc1)NC(=O)[C@H](Cc1c[nH]c2ccccc12)NC(=O)[C@@H]1CCCN1C(=O)[C@H](Cc1ccccc1)NC(=O)[C@H](CCCN=C(N)N)NC(=O)[C@H](CCCN=C(N)N)NC(=O)[C@@H](N)C(C)C)C(=O)N[C@@H](CCCN=C(N)N)C(=O)N[C@@H](CCCN=C(N)N)C(N)=O [VRRFPWYYPFLRR] |  | 16 µM (≈ 29.7 µg/mL)
11 | CC(C)C[C@H](NC(=O)[C@H](C)NC(=O)[C@@H](N)CO)C(=O)N[C@H](C(=O)NCC(=O)N[C@H]1CSSC[C@@H](C(=O)N[C@@H](Cc2ccccc2)C(=O)NCC(=O)N[C@@H](CCCN=C(N)N)C(=O)O)NC(=O)[C@@H]2CCCN2C(=O)[C@H](CCCCN)NC(=O)[C@@H]2CCCN2C(=O)[C@@H]2CCCN2C(=O)[C@H](Cc2ccc(O)cc2)NC(=O)[C@H](CO)NC(=O)[C@H](CCCCN)NC(=O)[C@H]([C@@H](C)O)NC(=O)CNC1=O)C(C)C [SALVGCGTKSYPPKPCFGR] | 12.7 µM (≈ 25 µg/mL) | 
12 | CC[C@H](C)[C@@H]1NC(=O)[C@H](CCCCN)NC(=O)[C@@H]2CCCN2C(=O)[C@H](Cc2cnc[nH]2)NC(=O)CNC(=O)[C@@H]2CSSC[C@@H]3NC(=O)[C@H](CO)NC(=O)CNC(=O)CNC(=O)[C@H](Cc4ccc(O)cc4)NC(=O)[C@H](CO)NC(=O)[C@H](CCSC)NC(=O)[C@@H](NC(=O)[C@@H](NC(=O)[C@@H](NC(=O)[C@@H]4CCCN4C(=O)[C@H](CO)NC(=O)[C@H](CC(N)=O)NC(=O)[C@@H](NC(=O)[C@H](CC(C)C)NC(=O)[C@@H](N)CCC(N)=O)[C@@H](C)CC)C(C)C)[C@@H](C)O)CSSC[C@H](NC(=O)[C@H](CCCN=C(N)N)NC1=O)C(=O)N[C@H](C(=O)N[C@@H](CCCN=C(N)N)C(=O)N[C@@H](CCCN=C(N)N)C(=O)N[C@@H](CCCCN)C(=O)O)CSSC[C@H](NC(=O)[C@H](CO)NC(=O)[C@H](CCCN=C(N)N)NC(=O)[C@H](CCC(N)=O)NC3=O)C(=O)N[C@@H](CC(N)=O)C(=O)NCC(=O)NCC(=O)N[C@@H](Cc1ccccc1)C(=O)N[C@@H](CCCN=C(N)N)C(=O)N[C@@H](CC(C)C)C(=O)NCC(=O)NCC(=O)N[C@@H](Cc1cnc[nH]1)C(=O)N2 [QLINSPVTCMSYGGSCQRSCNGGFRLGGHCGHPKIRCCRRK] |  | 4.48 µM (≈ 20 µg/mL)
